Reference: paper PMC6658524, “Lysosomal degradation of newly formed insulin granules contributes to β cell failure in diabetes” (Nature Communications, 2019)

Columns and labels:
CDK9/cyclin T1(h) = CDK9/cyclin T1(h) (Homo sapiens, UniProt P50750); experiment: biochemical; parameters: Eurofins KinaseProfiler panel of 60 kinases, per cent inhibition
Text: (§1) A more detailed account of the discovery, chemistry and biochemical properties of this novel class of selective p38δ inhibitors will be given elsewhere.

cSRC(h) = target: T1, cSRC(h) (Homo sapiens, UniProt P12931); experiment: biochemical; parameters: Eurofins KinaseProfiler panel of 60 kinases, per cent inhibition
T1 construct: gene SRC
Text: as §1

Pim-1(h) = target: T2, Pim-1(h) (Homo sapiens, UniProt P11309); experiment: biochemical; parameters: Eurofins KinaseProfiler panel of 60 kinases, per cent inhibition
T2 construct: gene PIM1
Text: as §1

EphB1(h) = EphB1(h) (Homo sapiens, UniProt P54762); experiment: biochemical; parameters: Eurofins KinaseProfiler panel of 60 kinases, per cent inhibition
EphB1(h), sequence (P54762 whole entry): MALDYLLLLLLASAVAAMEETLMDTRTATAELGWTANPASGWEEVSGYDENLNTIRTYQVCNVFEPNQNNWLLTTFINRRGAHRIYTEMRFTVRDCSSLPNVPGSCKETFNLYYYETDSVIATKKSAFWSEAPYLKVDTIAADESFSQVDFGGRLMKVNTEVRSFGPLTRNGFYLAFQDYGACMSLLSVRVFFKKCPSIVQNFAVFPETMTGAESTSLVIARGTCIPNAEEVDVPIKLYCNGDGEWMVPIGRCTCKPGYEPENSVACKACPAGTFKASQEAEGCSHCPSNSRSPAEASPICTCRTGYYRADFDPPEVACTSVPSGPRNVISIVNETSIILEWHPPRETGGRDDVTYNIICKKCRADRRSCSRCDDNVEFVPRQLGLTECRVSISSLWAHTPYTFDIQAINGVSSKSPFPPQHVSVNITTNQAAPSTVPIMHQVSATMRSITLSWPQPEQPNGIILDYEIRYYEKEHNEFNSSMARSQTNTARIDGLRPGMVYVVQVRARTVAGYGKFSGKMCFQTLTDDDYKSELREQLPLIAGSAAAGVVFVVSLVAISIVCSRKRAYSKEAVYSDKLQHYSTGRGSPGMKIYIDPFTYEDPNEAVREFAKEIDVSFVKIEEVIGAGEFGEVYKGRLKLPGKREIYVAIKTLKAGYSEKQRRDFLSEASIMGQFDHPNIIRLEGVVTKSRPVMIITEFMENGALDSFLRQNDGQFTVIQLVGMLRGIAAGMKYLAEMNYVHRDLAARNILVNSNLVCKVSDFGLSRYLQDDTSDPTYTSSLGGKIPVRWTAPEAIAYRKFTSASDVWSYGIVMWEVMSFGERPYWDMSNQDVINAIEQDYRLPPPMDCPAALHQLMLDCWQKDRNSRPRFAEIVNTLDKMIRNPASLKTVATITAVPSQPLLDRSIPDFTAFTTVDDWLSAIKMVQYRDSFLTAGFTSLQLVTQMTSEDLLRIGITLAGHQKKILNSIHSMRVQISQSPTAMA
Text: as §1

Flt3(h) = Flt3(h) (Homo sapiens, UniProt P36888); experiment: biochemical; parameters: Eurofins KinaseProfiler panel of 60 kinases, per cent inhibition
Text: as §1

JAK3(h) = JAK3(h) (Homo sapiens, UniProt P52333); experiment: biochemical; parameters: Eurofins KinaseProfiler panel of 60 kinases, per cent inhibition
Text: as §1

MST2(h) = target: T3, MST2(h) (Homo sapiens, UniProt Q13188); experiment: biochemical; parameters: Eurofins KinaseProfiler panel of 60 kinases, per cent inhibition
T3 construct: gene STK3
Text: as §1

Flt1(h) = Flt1(h) (Homo sapiens, UniProt P17948); experiment: biochemical; parameters: Eurofins KinaseProfiler panel of 60 kinases, per cent inhibition
Flt1(h), sequence (P17948 whole entry): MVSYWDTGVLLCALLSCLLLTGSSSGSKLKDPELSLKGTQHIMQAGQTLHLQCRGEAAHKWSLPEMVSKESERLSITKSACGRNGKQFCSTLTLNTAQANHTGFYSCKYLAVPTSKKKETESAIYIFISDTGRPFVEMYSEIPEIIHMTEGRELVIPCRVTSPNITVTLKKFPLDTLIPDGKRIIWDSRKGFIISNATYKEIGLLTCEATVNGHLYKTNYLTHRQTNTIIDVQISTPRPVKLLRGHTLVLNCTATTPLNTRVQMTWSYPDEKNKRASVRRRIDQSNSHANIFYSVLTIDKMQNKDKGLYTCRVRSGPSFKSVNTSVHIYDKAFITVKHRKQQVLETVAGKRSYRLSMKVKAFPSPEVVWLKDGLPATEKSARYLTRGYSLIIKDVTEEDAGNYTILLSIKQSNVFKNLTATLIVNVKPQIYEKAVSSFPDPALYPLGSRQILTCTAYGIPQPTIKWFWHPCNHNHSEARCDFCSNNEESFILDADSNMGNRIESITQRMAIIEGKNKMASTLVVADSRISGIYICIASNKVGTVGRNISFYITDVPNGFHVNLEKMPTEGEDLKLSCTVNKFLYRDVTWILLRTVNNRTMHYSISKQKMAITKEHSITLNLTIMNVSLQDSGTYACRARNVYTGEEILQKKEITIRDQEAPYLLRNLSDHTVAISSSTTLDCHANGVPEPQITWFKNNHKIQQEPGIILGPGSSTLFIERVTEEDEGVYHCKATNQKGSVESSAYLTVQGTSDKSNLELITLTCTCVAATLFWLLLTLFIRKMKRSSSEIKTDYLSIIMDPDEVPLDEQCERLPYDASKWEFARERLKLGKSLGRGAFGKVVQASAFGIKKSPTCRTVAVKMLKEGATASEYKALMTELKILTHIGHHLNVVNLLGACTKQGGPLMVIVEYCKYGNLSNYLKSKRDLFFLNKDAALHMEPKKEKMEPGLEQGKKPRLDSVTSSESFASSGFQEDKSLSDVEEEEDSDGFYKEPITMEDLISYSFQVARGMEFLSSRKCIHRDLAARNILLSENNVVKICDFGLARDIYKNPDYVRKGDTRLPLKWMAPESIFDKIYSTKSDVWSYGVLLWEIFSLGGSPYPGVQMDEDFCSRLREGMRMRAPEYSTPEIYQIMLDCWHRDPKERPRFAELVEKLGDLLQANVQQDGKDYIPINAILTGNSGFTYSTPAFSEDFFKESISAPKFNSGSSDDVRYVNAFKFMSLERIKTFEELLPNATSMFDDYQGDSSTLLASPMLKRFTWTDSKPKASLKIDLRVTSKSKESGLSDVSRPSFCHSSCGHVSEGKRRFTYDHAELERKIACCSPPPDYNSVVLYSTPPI
Text: as §1

Plk1(h) = Plk1(h) (Homo sapiens, UniProt P53350); experiment: biochemical; parameters: Eurofins KinaseProfiler panel of 60 kinases, per cent inhibition
Plk1(h), sequence (P53350 whole entry): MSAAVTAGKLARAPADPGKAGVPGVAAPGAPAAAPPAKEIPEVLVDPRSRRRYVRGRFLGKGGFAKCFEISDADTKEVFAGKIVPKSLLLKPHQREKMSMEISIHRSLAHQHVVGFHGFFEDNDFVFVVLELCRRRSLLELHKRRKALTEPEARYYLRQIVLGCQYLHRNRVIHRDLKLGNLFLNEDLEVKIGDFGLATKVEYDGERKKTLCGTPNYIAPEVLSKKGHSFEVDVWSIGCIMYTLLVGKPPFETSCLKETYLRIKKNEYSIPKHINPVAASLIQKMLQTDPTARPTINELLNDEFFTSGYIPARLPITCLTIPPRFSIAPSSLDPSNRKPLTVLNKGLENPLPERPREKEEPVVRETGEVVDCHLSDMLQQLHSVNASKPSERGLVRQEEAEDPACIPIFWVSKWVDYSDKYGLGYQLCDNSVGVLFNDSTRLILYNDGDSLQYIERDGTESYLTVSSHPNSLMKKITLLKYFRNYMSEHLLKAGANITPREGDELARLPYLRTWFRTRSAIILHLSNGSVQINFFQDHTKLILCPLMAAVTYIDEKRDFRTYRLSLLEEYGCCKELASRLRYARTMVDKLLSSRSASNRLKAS
Text: as §1

CaMKIIδ(h) = target: T4, CaMKIIδ(h) (Homo sapiens, UniProt Q13557); experiment: biochemical; parameters: Eurofins KinaseProfiler panel of 60 kinases, per cent inhibition
T4 construct: gene CAMK2D
Text: as §1

Aurora-B(h) = target: T5, Aurora-B(h) (Homo sapiens, UniProt Q96GD4); experiment: biochemical; parameters: Eurofins KinaseProfiler panel of 60 kinases, per cent inhibition
T5 construct: gene AURKB
Text: as §1

IKKε(h) = target: T6, IKKε(h) (Homo sapiens, UniProt Q14164); experiment: biochemical; parameters: Eurofins KinaseProfiler panel of 60 kinases, per cent inhibition
T6 construct: gene IKBKE
Text: as §1

Abl(h) = target: T7, Abl(h) (Homo sapiens, UniProt P00519); experiment: biochemical; parameters: Eurofins KinaseProfiler panel of 60 kinases, per cent inhibition
T7 construct: gene ABL1
Text: as §1

Lck(h) activated = Lck(h) activated (Homo sapiens, UniProt P06239); experiment: biochemical; parameters: Eurofins KinaseProfiler panel of 60 kinases, per cent inhibition
Lck(h) activated, sequence (P06239 whole entry): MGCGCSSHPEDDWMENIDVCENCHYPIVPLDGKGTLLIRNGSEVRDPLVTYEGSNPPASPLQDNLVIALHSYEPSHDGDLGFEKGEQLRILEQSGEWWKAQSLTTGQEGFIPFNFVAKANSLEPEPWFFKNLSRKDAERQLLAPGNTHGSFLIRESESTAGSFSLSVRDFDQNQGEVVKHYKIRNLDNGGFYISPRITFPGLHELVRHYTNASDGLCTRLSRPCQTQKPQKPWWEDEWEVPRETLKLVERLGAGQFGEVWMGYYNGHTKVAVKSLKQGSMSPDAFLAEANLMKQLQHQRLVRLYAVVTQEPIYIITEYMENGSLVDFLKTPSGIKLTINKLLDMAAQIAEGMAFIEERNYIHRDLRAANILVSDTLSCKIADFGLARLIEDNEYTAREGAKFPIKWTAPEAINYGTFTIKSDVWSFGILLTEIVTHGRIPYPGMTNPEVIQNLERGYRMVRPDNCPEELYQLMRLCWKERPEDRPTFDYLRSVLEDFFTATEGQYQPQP
Text: as §1

AMPKα2(h) = target: T8, AMPKα2(h) (Homo sapiens, UniProt P54646); experiment: biochemical; parameters: Eurofins KinaseProfiler panel of 60 kinases, per cent inhibition
T8 construct: gene PRKAA2
Text: as §1

LRRK2(h) = LRRK2(h) (Homo sapiens, UniProt Q5S007); experiment: biochemical; parameters: Eurofins KinaseProfiler panel of 60 kinases, per cent inhibition
Text: as §1

PKCβII(h) = target: T9, PKCβII(h) (Homo sapiens, UniProt P05771); experiment: biochemical; parameters: Eurofins KinaseProfiler panel of 60 kinases, per cent inhibition
T9 construct: gene PRKCB; isoform beta II
Text: as §1

GSK3β(h) = target: T10, GSK3β(h) (Homo sapiens, UniProt P49841); experiment: biochemical; parameters: Eurofins KinaseProfiler panel of 60 kinases, per cent inhibition
T10 construct: gene GSK3B
T10 sequence (P49841 whole entry): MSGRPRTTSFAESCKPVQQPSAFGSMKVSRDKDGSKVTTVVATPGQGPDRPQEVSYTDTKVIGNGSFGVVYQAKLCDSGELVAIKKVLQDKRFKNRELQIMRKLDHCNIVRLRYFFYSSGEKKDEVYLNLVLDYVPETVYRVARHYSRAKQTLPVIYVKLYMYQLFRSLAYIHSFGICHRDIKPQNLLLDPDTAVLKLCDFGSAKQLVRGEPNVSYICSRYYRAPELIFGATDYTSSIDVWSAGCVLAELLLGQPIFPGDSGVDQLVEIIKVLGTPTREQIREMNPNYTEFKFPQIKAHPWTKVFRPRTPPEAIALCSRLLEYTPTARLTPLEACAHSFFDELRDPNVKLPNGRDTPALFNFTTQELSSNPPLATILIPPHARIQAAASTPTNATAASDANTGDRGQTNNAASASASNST
Text: as §1

CDK1/cyclinB(h) = CDK1/cyclinB(h) (Homo sapiens, UniProt P06493); experiment: biochemical; parameters: Eurofins KinaseProfiler panel of 60 kinases, per cent inhibition
CDK1/cyclinB(h), sequence (P06493 whole entry): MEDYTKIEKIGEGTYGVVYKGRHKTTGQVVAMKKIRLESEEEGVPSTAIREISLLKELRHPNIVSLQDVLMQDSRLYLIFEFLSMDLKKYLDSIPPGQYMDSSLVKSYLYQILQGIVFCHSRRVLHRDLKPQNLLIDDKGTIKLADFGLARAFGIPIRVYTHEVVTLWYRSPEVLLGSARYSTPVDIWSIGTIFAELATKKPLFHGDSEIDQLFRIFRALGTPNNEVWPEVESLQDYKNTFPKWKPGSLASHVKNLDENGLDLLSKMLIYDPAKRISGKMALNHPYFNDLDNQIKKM
CDK1/cyclinB(h), sequence (P14635 whole entry partner): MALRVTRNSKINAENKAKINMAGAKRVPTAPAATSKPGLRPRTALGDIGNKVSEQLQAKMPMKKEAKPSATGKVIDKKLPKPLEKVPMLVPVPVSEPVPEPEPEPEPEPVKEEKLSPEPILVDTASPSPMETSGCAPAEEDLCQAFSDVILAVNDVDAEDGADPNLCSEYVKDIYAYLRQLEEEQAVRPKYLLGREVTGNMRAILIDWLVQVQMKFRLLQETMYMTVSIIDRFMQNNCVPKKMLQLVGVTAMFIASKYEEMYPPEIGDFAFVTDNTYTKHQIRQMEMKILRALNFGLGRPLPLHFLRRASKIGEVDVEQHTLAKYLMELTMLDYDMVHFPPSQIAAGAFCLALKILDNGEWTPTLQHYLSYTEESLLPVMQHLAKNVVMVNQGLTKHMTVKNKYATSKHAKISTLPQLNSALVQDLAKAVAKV
Text: as §1

Pim-2(h) = target: T11, Pim-2(h) (Homo sapiens, UniProt Q9P1W9); experiment: biochemical; parameters: Eurofins KinaseProfiler panel of 60 kinases, per cent inhibition
T11 construct: gene PIM2
T11 sequence (Q9P1W9 whole entry): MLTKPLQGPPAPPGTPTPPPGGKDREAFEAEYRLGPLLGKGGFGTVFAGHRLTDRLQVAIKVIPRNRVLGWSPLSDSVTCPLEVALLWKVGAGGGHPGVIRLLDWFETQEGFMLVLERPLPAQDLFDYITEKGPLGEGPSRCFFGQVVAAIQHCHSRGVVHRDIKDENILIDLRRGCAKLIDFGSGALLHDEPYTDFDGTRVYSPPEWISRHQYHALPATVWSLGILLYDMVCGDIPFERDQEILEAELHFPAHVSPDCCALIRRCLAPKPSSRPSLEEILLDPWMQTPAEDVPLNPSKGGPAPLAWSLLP
Text: as §1

Syk(h) = Syk(h) (Homo sapiens, UniProt P43405); experiment: biochemical; parameters: Eurofins KinaseProfiler panel of 60 kinases, per cent inhibition
Text: as §1

[1] = target: T12, PI3 Kinase (p110α/p85α)(h) (Homo sapiens, UniProt P42336); experiment: biochemical; parameters: Eurofins KinaseProfiler panel of 60 kinases, per cent inhibition
T12 construct: gene PIK3CA; p110α/p85α
Text: as §1

MELK(h) = MELK(h) (Homo sapiens, UniProt Q14680); experiment: biochemical; parameters: Eurofins KinaseProfiler panel of 60 kinases, per cent inhibition
Text: as §1

p70S6K = target: T13, p70S6K (Homo sapiens, UniProt P23443); experiment: 60-kinase selectivity panel, % inhibition at […]; assay type: biochemical
T13 construct: gene RPS6KB1

Structure (SMILES): CCN1CCOc2nc(N3CCOCC3)nc(-c3ccc(NC(=O)OC)cc3)c2C1=O [Compound A]
- inhibition at 1 µM (CDK9/cyclin T1(h)): -16%
- inhibition at 10 µM (CDK9/cyclin T1(h)): 3%
- inhibition at 1 µM (cSRC(h)): -9%
- inhibition at 10 µM (cSRC(h)): -12%
- inhibition at 1 µM (Pim-1(h)): -6%
- inhibition at 10 µM (Pim-1(h)): -7%
- inhibition at 1 µM (EphB1(h)): 6%
- inhibition at 10 µM (EphB1(h)): 10%
- inhibition at 1 µM (Flt3(h)): -30%
- inhibition at 10 µM (Flt3(h)): -25%
- inhibition at 1 µM (JAK3(h)): 0%
- inhibition at 10 µM (JAK3(h)): -5%
- inhibition at 1 µM (MST2(h)): -16%
- inhibition at 10 µM (MST2(h)): -2%
- inhibition at 1 µM (Flt1(h)): -30%
- inhibition at 10 µM (Flt1(h)): -28%
- inhibition at 1 µM (Plk1(h)): 2%
- inhibition at 10 µM (Plk1(h)): 11%
- inhibition at 1 µM (CaMKIIδ(h)): -6%
- inhibition at 10 µM (CaMKIIδ(h)): 1%
- inhibition at 1 µM (Aurora-B(h)): -24%
- inhibition at 10 µM (Aurora-B(h)): -28%
- inhibition at 1 µM (IKKε(h)): 16%
- inhibition at 10 µM (IKKε(h)): 18%
- inhibition at 1 µM (Abl(h)): 6%
- inhibition at 10 µM (Abl(h)): 8%
- inhibition at 1 µM (Lck(h) activated): -7%
- inhibition at 10 µM (Lck(h) activated): 13%
- inhibition at 1 µM (AMPKα2(h)): -5%
- inhibition at 10 µM (AMPKα2(h)): 5%
- inhibition at 1 µM (LRRK2(h)): -18%
- inhibition at 10 µM (LRRK2(h)): -11%
- inhibition at 1 µM (PKCβII(h)): 0%
- inhibition at 10 µM (PKCβII(h)): 1%
- inhibition at 1 µM (GSK3β(h)): 1%
- inhibition at 10 µM (GSK3β(h)): 12%
- inhibition at 1 µM (CDK1/cyclinB(h)): -5%
- inhibition at 10 µM (CDK1/cyclinB(h)): 4%
- inhibition at 1 µM (Pim-2(h)): 8%
- inhibition at 10 µM (Pim-2(h)): 7%
- inhibition at 1 µM (Syk(h)): 4%
- inhibition at 10 µM (Syk(h)): 20%
- inhibition at 1 µM [1]: -1%
- inhibition at 10 µM [1]: 2%
- inhibition at 1 µM (MELK(h)): 2%
- inhibition at 10 µM (MELK(h)): 9%
- % inhibition at 10 μM (p70S6K): 59
